Test results published in article PMC3871529, “At a Supra-Physiological Concentration, Human Sexual Hormones Act as Quorum-Sensing Inhibitors” (PLoS ONE, 2013).
Values after ≈ are worked out from the molar mass of the structure shown. Read-outs that look alike come from different tables or passages of the source.

Legend:
[1] = test system: Agrobacterium biosensor cells; assay: Minimal inhibitory concentration (MIC); format: cell-based, Agrobacterium tumefaciens; conditions: 10^5 CFU/ml, 36 h at 30°C
Procedure: (§1) Aside from the effect of QSI on QS regulation, the toxicity of these compounds was tested on bacterial cells by measuring two parameters: the minimal inhibitory concentration (MIC) and minimal bactericidal concentration (MBC). MIC, which is the lowest concentration of QSI (µg/ml) inhibiting any visible culture after 36 h of incubation at 30°C, was estimated by culturing 10^5 CFU/ml of the Agrobacterium biosensor cells in the presence of different concentrations of the QSI. MBC, which is the lowest concentration of QSI (µg/ml) that results in a 99.9% reduction of the initial bacterial population (10^5 CFU/ml) after 36 h of incubation at 30°C in the presence of different concentrations of QSI, was estimated by plating 100 µL of the Agrobacterium cultures on agar LBm plates. After an incubation of 48 h at 30°C, CFU were counted and the MBC values were calculated.

[2] = test system: A. tumefaciens NT1(pZLR4) traG-lacZ reporter fusion; assay: QSI activity on A. tumefaciens AHL-bioindicator (traG-lacZ β-galactosidase); format: cell-based, Agrobacterium tumefaciens; conditions: for inhibition at 100 µg/mL: Agrobacterium tumefaciens, read-out: inhibition (%) at 100 µg/ml; for QSI hit in library screening: second screening: compounds at 5 µg/ml, C8-HSL 10 nM, A. tumefaciens biosensor
Procedure: Two bacterial QS-signal biosensors were used. Chromobacterium violaceum CV026 [41] was grown in Luria-Bertani modified (LBm) medium, in which the NaCl concentration was 5 g/l instead of 10 g/l. Agrobacterium tumefaciens NT1(pZLR4) was grown in AB minimal medium supplemented with mannitol (0.2%). After supplementation with appropriate AHL, each of the QS-biosensors expresses a reporting activity, which is the production of the pigment violacein in C. violaceum CV026 and that of β-galactosidase from the transcriptional fusion traG::lacZ in A. tumefaciens NT1(pZLR4).
When the screening was performed, the chemical library of the Institut de Chimie des Substances Naturelles (ICSN, Gif-sur-Yvette, France) contained more than 3500 synthetic and natural compounds, which were individually dissolved in dimethylsulfoxide (DMSO) at 1mg/ml and stored in 96 microwell plates. A first screening was performed by mixing biosensor CV026 with the AHL hexanoylhomoserine lactone (C6-HSL) at 0.5 µM and the tested compounds at 50 µg/ml. Final volume was adjusted to 100 µl with a synthetic medium (10% LBm and 0.4% sucrose). After 24 hours of incubation at 30°C, the presence or absence of violacein pigment was quoted by visual reading. […] Final volume was adjusted to 100 µl by the addition of AB minimal medium supplemented with mannitol (0.2%) and TY medium (10%). After 4 hours of incubation at 30°C, β-galactosidase activity was measured in A. tumefaciens cultures as previously described. In the two screenings, 4-nitropyridine-N-oxide (4-NPO) was used as a QSI reference. […]

[3] = test system: Agrobacterium biosensor cells; assay: Minimal bactericidal concentration (MBC); format: cell-based, Agrobacterium tumefaciens; conditions: Agrobacterium; 99.9% reduction of 10^5 CFU/ml after 36 h at 30°C; read-out: MBC
Procedure: as §1

[4] = test system: QS-signal accumulation in P. aeruginosa; assay: AHL (C4-HSL, OC12-HSL) quantification in P. aeruginosa cultures by mass spectrometry; format: cell-based, Pseudomonas aeruginosa; conditions: QSI at 0.5 mg/ml, 18-hour
Procedure: (§2) Figure 5 QSIs modulated QS-signal accumulation in P. aeruginosa. Growth kinetics (n = 6) of P. aeruginosa was measured (OD600) in the presence of the QSIs (estradiol, estrone, estriol, hordenine and 4-NPO) at 0.5 mg/ml using DMSO as a negative control. Cell counts were assessed (CFU/ml) at 8- and 18-hour, and C4-HSL and OC12-HSL concentration (µM) were determined in the bacterial cultures at 18-hour. Statistically different values (Student's t test with α = 0.01) are noted by asterisks.
(§3) QS gene transcription in P. aeruginosa PAO1 was monitored using PAO1 strains carrying various gene promoters fused to a lacZ reporter gene, as described in Vandeputte et al., 2010 and Table 1. PAO1 reporter strains were prepared according to Vandeputte et al.. Briefly, 18-hours-old liquid cultures (50 µl) were diluted in order to obtain a starting OD600 nm comprised between 0.02 and 0.03 in fresh LB medium supplemented with 50 mM MOPS pH 7.0 (1 ml), carbenicillin (300 µg/ml) and 10 µl of the QSIs to be tested (OD were measured using a SpectraMax M2 device from Molecular Devices). Test and control QSIs were diluted in 100% DMSO (resulting after addition to the growth medium in a 1% final concentration of DMSO). Cultures were incubated for 18 hours at 37°C with agitation. After incubation, cell densities were assessed spectrophotometrically (OD600 nm) and β-galactosidase assays were performed using the substrate o-nitrophenyl-β-D-galactopyranoside as described previously, [29]. Promoterless-lacZ fusions were used as controls. AHLs were quantified as described in Vandeputte et al.. All tests were performed in quintuplicates and three biological repetitions. The statistical significance of each test was evaluated by conducting Student's t tests and two-way ANOVA combined with the Tukey post-analysis test using the GraphPad Prism software and p values≤0.01 were considered significant.

[5] = test system: QS-regulated Ti-plasmid transfer in A. tumefaciens; assay: QS-regulated Ti-plasmid transfer (conjugation) assay; format: cell-based, Agrobacterium tumefaciens; conditions: QSI at 0.1 mg/ml, OC8-HSL 500 pM, 72 h at 24°C
Procedure: Figure 4 In vitro Ti plasmid transfer frequency in Agrobacterium. The Ti plasmid transfer frequencies were measured in the presence of QSI (A) and the four 1248-diastereoisomeres (B) at 0.1 mg/ml. Histograms represent the cell density of transconjugants (CFU/ml), while black diamonds and squares, those of the donor and recipient strains, respectively. Measurements were performed in quadruplicate and the experiment was repeated twice. The cell densities of transconjugants in the presence of QSI were compared to that of the control in the presence of DMSO with a Mann and Whitney test (α = 0.05). Statistically different values are noted by asterisks.
In A. tumefaciens, the transfer of the Ti-plasmid from a donor cell to a recipient one is controlled by QS. QSI were evaluated for their capacity to reduce plasmid transfer frequency in Agrobacterium. In the plasmid transfer assay, two modified Agrobacterium strains were used: a Ti-plasmid donor, which requires exogenous AHL to transfer a kanamycin-resistant (Km^r) Ti-plasmid, and a rifampicin-resistant (Rif^r) recipient strain, which is free of Ti-plasmid. Overnight cultures of the donor and recipient strains were mixed with 500 pM of oxo-octanoylhomoserine lactone (OC8-HSL) and 0.1 mg/ml of QSI in LBm medium. Each combination was repeated 4 times in microwell plates.

P. aeruginosa = assay: Growth kinetics of P. aeruginosa in the presence of QSIs; format: cell-based, Pseudomonas aeruginosa; conditions: QSI at 0.5 mg/ml, OD600 and CFU at 8 and 18 hour
Procedure: as §2, §3

SMILES | MIC ([1]; Agrobacterium, read-out: MIC) [µg/mL] | inhibition at 100 µg/mL [2] [%] | MBC [3] [µg/mL] | C4-HSL concentration in cell cultures [4] | OC12-HSL concentration in cell cultures [4] | decrease of plasmid transfer efficiency [5] [fold] | effect on growth of P. aeruginosa (P. aeruginosa) | QSI hit in library screening [2] | effect on Ti plasmid transfer frequency (words) [5] | MIC [1]
C[C@@H](NC[C@H]1Cc2ccccc2N1)c1cccc2ccccc12 [(R,R)-1248, (R)-N-((R)-indolin-2-ylmethyl)-1-(naphthalen-1-yl)ethanamine] | 100 (≈ 331 µM) | 10 | 100 (≈ 331 µM) |  |  |  |  |  |  | 
C[C@H](NC[C@H]1Cc2ccccc2N1)c1cccc2ccccc12 [(R,S)-1248, (S)-N-((R)-indolin-2-ylmethyl)-1-(naphthalen-1-yl)ethanamine] | 100 (≈ 331 µM) | 0 | 100 (≈ 331 µM) |  |  |  |  |  |  | 
C[C@@H](NC[C@@H]1Cc2ccccc2N1)c1cccc2ccccc12 [(S,R)-1248, (R)-N-((S)-indolin-2-ylmethyl)-1-(naphthalen-1-yl)ethanamine] | 100 (≈ 331 µM) |  | 100 (≈ 331 µM) |  |  |  |  |  |  | 
C[C@H](NC[C@@H]1Cc2ccccc2N1)c1cccc2ccccc12 [(S,S)-1248, (S)-N-((S)-indolin-2-ylmethyl)-1-(naphthalen-1-yl)ethanamine] | 100 (≈ 331 µM) |  | > 100 |  |  |  |  |  |  | 
O=[N+]([O-])c1cc[n+]([O-])cc1 [Compound 4-NPO, 4-nitropyridine-N-oxide, reference compound] | 25 (≈ 178 µM) |  | > 100 | reduction | reduction | 10 | slightly delayed the growth |  |  | 
CCC12CCCN3CCC4(C(=C(C(=O)OC)C1)Nc1ccccc14)C32 (stereo not drawn) [Compound 14] | > 100 | 0 | > 100 |  |  |  |  | hits |  | 
CC1C2CCC3C4CC=C5CC(N)CCC5(C)C4CCC32CN1C.Cl (stereo not drawn) [Compound 283, 2,3,11a-Trimethyl-2,3,3a,4,5,5a,5b,6,8,9,10,11,11a,11b,12,13-hexadecahydro-1H-2-aza-pentaleno[1,6a-a]phenanthren-9-ylamine hydrochloride] | > 100 |  | > 100 |  |  |  |  | hits |  | 
C=C[C@H]1CN2CC[C@H]1C[C@H]2[C@H](O)c1ccnc2ccc(OC)cc12 [Compound 937] | > 100 | 15 | > 100 |  |  |  |  | hits |  | 
CC(C)CCC[C@@H](C)[C@H]1CCC2C3CC=C4C[C@@H](Cl)CC[C@]4(C)C3CC[C@@]21C (stereo partly drawn) [Compound 1099] | 100 (≈ 247 µM) |  | > 100 |  |  |  |  | hits | significantly reduce the plasmid transfer frequency by one order of magnitude | 
COc1nc([N+](=O)[O-])nn1[C@H]1C[C@H](O)[C@@H](CO)O1 [Compound 1102] | > 100 | 0 | > 100 |  |  |  |  | hits | significantly reduce the plasmid transfer frequency by one order of magnitude | 
CC(NCC1Cc2ccccc2N1)c1cccc2ccccc12 (stereo not drawn) [Compound 1248] | > 100 |  | > 100 |  |  |  |  | hits |  | 
Cc1ccc(S(=O)(=O)CCC(=O)c2ccccc2)cc1 [Compound 1577] | 3 (≈ 10.4 µM) |  | 25 (≈ 86.7 µM) |  |  |  |  | hits | significantly reduce the plasmid transfer frequency by one order of magnitude | 
CC(C)CCC[C@@H](C)[C@H]1CCC2C3CCC4CC(=O)CC[C@]4(C)C3CC[C@@]21C (stereo partly drawn) [Compound 1868] | 12.5 (≈ 32.3 µM) | 34 | > 100 |  |  |  |  | hits |  | 12,5 µg/ml
Cc1cn(COCCSc2ccccc2)c(=O)[nH]c1=O [Compound 1949, 5-Methyl-1-(2-phenylsulfanyl-ethoxymethyl)-1H-pyrimidine-2,4-dione] | > 100 | 38 | > 100 |  |  |  |  | hits |  | 
CN1CCc2c([nH]c3ccccc23)C1 [Compound 3492] | > 100 |  | > 100 |  |  |  |  | hits |  | 
CC/C=C\C[C@H]1C(=O)CC[C@@H]1CC(=O)O [Jasmonic acid, jasmonic acid, reference compound] | > 100 |  | > 100 |  |  |  |  |  |  | 
